In general, IC50 refers to the concentration needed to halve the response being measured.

Here are results for 30 molecules from patent US6093732A, “4-hydroxyquinoline-3-carboxamides and hydrazides as antiviral agents” (Pharmacia & Upjohn Company, priority 1998, dated 2000).

T1 sequence (P08546 whole entry): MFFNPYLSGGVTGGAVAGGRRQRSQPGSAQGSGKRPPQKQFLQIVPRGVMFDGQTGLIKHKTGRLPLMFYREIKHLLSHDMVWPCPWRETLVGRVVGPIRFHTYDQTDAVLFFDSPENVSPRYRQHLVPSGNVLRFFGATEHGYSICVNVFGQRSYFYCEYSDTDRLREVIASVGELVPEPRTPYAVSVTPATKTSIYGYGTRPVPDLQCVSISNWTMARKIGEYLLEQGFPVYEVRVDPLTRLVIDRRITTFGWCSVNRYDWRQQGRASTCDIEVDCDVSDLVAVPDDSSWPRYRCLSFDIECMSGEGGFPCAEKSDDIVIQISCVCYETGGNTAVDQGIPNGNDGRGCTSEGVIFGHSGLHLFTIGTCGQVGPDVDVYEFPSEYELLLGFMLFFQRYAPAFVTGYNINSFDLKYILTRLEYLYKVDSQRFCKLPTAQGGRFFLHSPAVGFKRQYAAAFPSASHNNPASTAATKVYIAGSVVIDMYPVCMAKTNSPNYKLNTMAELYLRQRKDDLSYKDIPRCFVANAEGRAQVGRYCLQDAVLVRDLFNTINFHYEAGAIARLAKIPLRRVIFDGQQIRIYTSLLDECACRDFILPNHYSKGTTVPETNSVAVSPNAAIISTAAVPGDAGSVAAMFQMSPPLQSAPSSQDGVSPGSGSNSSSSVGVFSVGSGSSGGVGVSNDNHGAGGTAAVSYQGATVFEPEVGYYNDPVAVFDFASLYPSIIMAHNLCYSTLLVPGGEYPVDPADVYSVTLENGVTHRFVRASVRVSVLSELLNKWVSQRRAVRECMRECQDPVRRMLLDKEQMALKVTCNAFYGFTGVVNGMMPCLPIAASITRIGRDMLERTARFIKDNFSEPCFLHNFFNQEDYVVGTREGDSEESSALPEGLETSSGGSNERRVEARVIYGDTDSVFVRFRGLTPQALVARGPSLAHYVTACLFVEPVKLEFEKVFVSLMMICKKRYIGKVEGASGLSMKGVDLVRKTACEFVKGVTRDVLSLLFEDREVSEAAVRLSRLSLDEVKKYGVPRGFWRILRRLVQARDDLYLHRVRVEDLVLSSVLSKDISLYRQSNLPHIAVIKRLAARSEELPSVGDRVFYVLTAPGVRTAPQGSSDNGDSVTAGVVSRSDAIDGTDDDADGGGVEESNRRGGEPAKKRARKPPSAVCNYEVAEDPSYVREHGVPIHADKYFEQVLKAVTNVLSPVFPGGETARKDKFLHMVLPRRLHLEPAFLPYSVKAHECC

One test addresses T1, HCMV polymerase (Human cytomegalovirus, UniProt P08546).
T1 construct: made in house; host or cells: recombinant baculovirus-infected SF-9 cells
Kind of test: HCMV polymerase scintillation proximity assay (SPA), modified version. The class given is biochemical. Conditions: Antiviral Selective Polymerase IC50 Values, CMV, Table 1, modified assay with 4.5 mM DTT, compounds in 100% DMSO. As for the experimental part: The HCMV polymerase assay is performed using a scintillation proximity assay (SPA) as described in several references, such as N. D. Cook, et al., Pharmaceutical Manufacturing International, pages 49-53 (1992); K. Takeuchi, Laboratory Practice, September issue (1992); U.S. Pat. No. 4,568,649 (1986); which are incorporated by reference herein. Reactions are performed in 96-well plates. The assay is conducted in 100 μl volume with 5.4 mM HEPES (pH 7.5), 11.7 mM KCl, 4.5 mM MgCl2, 0.36 mg/ml BSA, and 90 nM ^3 H-dTTP. Assays are run with and without CHAPS, (3-[(3-Cholamidopropyl)-dimethylammonio]-1-propane-sulfonate) at a final concentration of 2 mM. HCMV polymerase is diluted in enzyme dilution buffer containing 50% glycerol, 250 mM NaCl, 10 mM HEPES (pH 7.5), 100 μg/ml BSA, and 0.01% sodium azide. The HCMV polymerase, which is expressed in recombinant baculovirus-infected SF-9 cells and purified according to literature procedures, is added at 10% (or 10 μl) of the final reaction volume, i.e., 100 μl. Compounds are diluted in 50% DMSO and 10 μl are added to each well. Control wells contain an equivalent concentration of DMSO. Unless noted otherwise, reactions are initiated via the addition of 6 nM biotinylated poly(dA)-oligo(dT) template/primer to reaction mixtures containing the enzyme, substrate, and compounds of interest. Plates are incubated in a 25° C. or 37° C. H2 O bath and terminated via the addition of 40 μl/reaction of 0.5 M EDTA (pH 8) per well. Reactions are terminated within the time-frame during which substrate incorporation is linear and varied depending upon the enzyme and conditions used, i.e., 30 min. for HCMV polymerase. Ten μl of streptavidin-SPA beads (20 mg/ml in PBS/10% glycerol) are added following termination of the reaction. Plates are incubated 10 min. at 37° C., then equilibrated to room temperature, and counted on a Packard Topcount. Linear regressions are performed and IC50 's are calculated using computer software.
A modified version of the above HCMV polymerase assay is performed as described above, but with the following changes: Compounds are diluted in 100% DMSO until final dilution into assay buffer. In the previous assay, compounds are diluted in 50% DMSO. 4.5 mM dithiotherotol (DTT) is added to the polymerase buffer. […] Other viral polymerase assays are performed using procedures similar to those described above.
A general note: SPA uses beads or plates that emit light when radiolabelled molecules are held near them.
Take `O=C(NCc1ccc(Cl)cc1)c1cnc2c(F)cc(S(=O)(=O)NCCCl)cc2c1O` [Example 245, N-(4-chlorobenzyl)-6-{[(2-chloroethyl)amino]sulfonyl}-8-fluoro-4-hydroxy-3-quinolinecarboxamide]: the midpoint of inhibition, the IC50, lay at 13.3 µM.

The same test, now with this note: CMV polymerase; Table 1; modified assay with 4.5 mM DTT, compounds in 100% DMSO; read-out: Antiviral Selective Polymerase IC50 Values, CMV.
On to `O=C(NCc1ccc(Cl)cc1)c1cnc2ccc(N3CCOC3=O)cc2c1O` [Example 190, N-(4-Chlorobenzyl)-4-hydroxy-6-(2-oxo-1,3-oxazolidin-3-yl)-3-quinolinecarboxamide], for which the 50% inhibitory concentration (IC50) is 2.7 µM.
In the case of `O=C(NCc1ccc(Cl)cc1)c1cnc2c(F)cc(S(=O)(=O)NCCc3c[nH]cn3)cc2c1O` [Example 207, N-(4-chlorobenzyl)-8-fluoro-4-hydroxy-6-({[2-(1H-imidazol-4-yl)ethyl]amino}sulfonyl)-3-quinolinecarboxamide], the concentration for half-maximal inhibition (IC50) worked out at 14.4 µM.
As for `COCCOCSc1cc(F)c2ncc(C(=O)NCc3ccc(Cl)cc3)c(O)c2c1` [Example 173, N-(4-Chlorobenzyl)-8-fluoro-4-hydroxy-6-{[(2-methoxyethoxy)-methyl]sulfanyl}-3-quinolinecarboxamide], the 50% inhibitory concentration (IC50) stood at 12.8 µM.
Same read-out and setting: with `N#CCCCC#Cc1cc(F)c2ncc(C(=O)NCc3ccc(Cl)cc3)c(O)c2c1` [Example 89, N-(4-Chlorobenzyl)-6-(5-cyano-1-pentynyl)-8-fluoro-4-hydroxy-3-quinolinecarboxamide] the figure was 7.2 µM; with `O=C(NCc1ccc(Cl)cc1)c1cnc2c(F)cc(S(=O)(=O)NCC(O)CO)cc2c1O` (stereo not drawn) [Example 224, N-(4-chlorobenzyl)-6-{[(2,3-dihydroxypropyl)amino]sulfonyl}-8-fluoro-4-hydroxy-3-quinolinecarboxamide], 21.6 µM; with `Cc1c(N)ccc2c(O)c(C(=O)NCc3ccc(Cl)cc3)cnc12` [Example 50, 7-Amino-N-[(4-chlorophenyl)methyl]-4-hydroxy-8-methyl-3-quinolinecarboxamid], 6.9 µM.
With `O=C(NCc1ccc(Cl)cc1)c1cnc2c(F)cc(S(=O)(=O)N(CCO)CCO)cc2c1O` [Example 195, 6-{[Bis(2-hydroxyethyl)amino]sulfonyl}-N-(4-chlorobenzyl)-8-fluoro-4-hydroxy-3-quinolinecarboxamide], the IC50 was found to be 18.3 µM.
Same read-out and setting: with `O=C(NCc1ccc(Cl)cc1)c1cnc2cc(Cl)ccc2c1O` [Example 56, 7-Chloro-N-((4-chlorophenyl)methyl)-4-hydroxy-3-quinoline-carboxamide] the figure was 3.1 µM; with `O=C(NCc1ccc(Cl)cc1)c1cnc2c(F)cc(S(=O)(=O)NCc3cccnc3)cc2c1O` [Example 218, N-(4-chlorobenzyl)-8-fluoro-4-hydroxy-6-{[(3-pyridinylmethyl)amino]sulfonyl}-3-quinolinecarboxamide], 17.6 µM.
Same read-out and setting: the result for `O=C(Nc1ccccc1)OCC#Cc1cc(F)c2ncc(C(=O)NCc3ccc(Cl)cc3)c(O)c2c1` [Example 150, 3-(3-{[(4-Chlorobenzyl)amino]carbonyl}-8-fluoro-4-hydroxy-6-quinolinyl)-2-propynyl phenylcarbamate] reads 4.8 µM; that for `CCOC(=O)CNS(=O)(=O)c1cc(F)c2ncc(C(=O)NCc3ccc(Cl)cc3)c(O)c2c1` [Example 196, Ethyl 2-{[(3-{[(4-chlorobenzyl)amino]carbonyl}-8-fluoro-4-hydroxy-6-quinolinyl)sulfonyl]amino) acetate], 19.4 µM.
On to `O=C(NCc1ccc(Cl)cc1)c1cnc2c(F)cc(S(=O)(=O)NCC3CC3)cc2c1O` [Example 253, N-(4-chlorobenzyl)-6-{[(cyclopropylmethyl)amino]sulfonyl}-8-fluoro-4-hydroxy-3-quinolinecarboxamide], for which the IC50 is 20.6 µM.
On the same count and under the same terms, the result for `O=C(NCc1ccc(Cl)cc1)c1cnc2c(F)cc(S(=O)(=O)NCCc3ccccn3)cc2c1O` [Example 217, N-(4-chlorobenzyl)-8-fluoro-4-hydroxy-6-({[2-(2-pyridinyl)ethyl]amino}sulfonyl)-3-quinolinecarboxamide] reads 15.2 µM; that for `NC(=O)CNS(=O)(=O)c1cc(F)c2ncc(C(=O)NCc3ccc(Cl)cc3)c(O)c2c1` [Example 265, 6-{[(2-amino-2-oxoethyl)amino]sulfonyl}-N-(4-chlorobenzyl)-8-fluoro-4-hydroxy-3-quinolinecarboxamide], 11.4 µM.
Consider `O=C(NCc1ccc(Cl)cc1)c1cnc2ccc(CCCOP(=O)(O)O)cc2c1O` [Example 269, 3-(3-{[(4-Chlorobenzyl)amino]carbonyl-4-hydroxy-6-quinolinyl)propyldihydrogen phosphate], for which the IC50 was found to be 9.8 µM.
The same measure, in the same setting: the result for `CN(C)C(=O)c1cc(F)c2ncc(C(=O)NCc3ccc(Cl)cc3)c(O)c2c1` [Example 182, N^3-(4-Chlorobenzyl)-8-fluoro-4-hydroxy-N^6,N^6-dimethyl-3,6-quinolinedicarboxamide] reads 5 µM; that for `CCCc1ccc2ncc(C(=O)NCc3ccc(Cl)cc3)c(O)c2c1` [Example 151, N-(4-Chlorobenzyl)-4-hydroxy-6-propyl-3-quinolinecarboxamide], 0.91 µM.
Consider `O=C(NCc1ccc(Cl)cc1)c1cnc2cc(C(F)(F)F)cc(C(F)(F)F)c2c1O` [Example 8, N-[(4-Chlorophenyl)methyl]-4-hydroxy-5,7-bis(trifluoromethyl)-3-quinolinecarboxamide], for which the IC50 worked out at 55.3 µM.
As to `CCOC(=O)/C=C/c1cc(F)c2ncc(C(=O)NCc3ccc(Cl)cc3)c(O)c2c1` [Example 112, Ethyl (E)-3-(3-{[(4-chlorobenzyl)amino]carbonyl}-8-fluoro-4-hydroxy-6-quinolinyl)-2-propenoate], the IC50 turned out to be 14 µM.
In the case of `CCN(CCO)c1ccc2ncc(C(=O)NCc3ccc(Cl)cc3)c(O)c2c1` [Example 189, N-(4-Chlorobenzyl)-6-[ethyl(2-hydroxyethyl)amino]-4-hydroxy-3-quinolinecarboxamide], the half-inhibitory concentration (IC50) came to 19.4 µM.
The same measure, in the same setting: with `O=C(NCCc1ccc(O)cc1)c1cc(F)c2ncc(C(=O)NCc3ccc(Cl)cc3)c(O)c2c1` [Example 183, N^3-(4-Chlorobenzyl)-8-fluoro-4-hydroxy-N^6-(4-hydroxyphenethyl)-3,6-quinolinedicarboxamide] the figure was 32 µM; with `O=C(NCc1ccc(Cl)cc1)c1cnc2c([N+](=O)[O-])cccc2c1O` [Example 49, N-[(4-Chlorophenyl)methyl]-4-hydroxy-8-nitro-3-quinoline-carboxamide], 3.7 µM.
Consider `Nc1ccc(CNS(=O)(=O)c2cc(F)c3ncc(C(=O)NCc4ccc(Cl)cc4)c(O)c3c2)cc1` [Example 266, 6-{[(4-aminobenzyl)amino]sulfonyl}-N-(4-chlorobenzyl)-8-fluoro-4-hydroxy-3-quinolinecarboxamide], for which the 50% inhibitory concentration (IC50) was 10.1 µM.
For the molecule `CC(C)CCNS(=O)(=O)c1cc(F)c2ncc(C(=O)NCc3ccc(Cl)cc3)c(O)c2c1` [Example 233, N-(4-chlorobenzyl)-8-fluoro-4-hydroxy-6-[(isopentylamino)sulfonyl]-3-quinolinecarboxamide], the 50% inhibitory concentration (IC50) was found to be 11.2 µM.
`CN(CCS(=O)(=O)O)C(=O)CCCCCCC(=O)OCC#Cc1ccc2ncc(C(=O)NCc3ccc(Cl)cc3)c(O)c2c1`: the concentration for half-maximal inhibition (IC50) came out at 16.5 µM.
Same read-out and setting: the result for `O=C(NCc1ccc(Cl)cc1)c1cnc2c(F)cc([S+]([O-])CCO)cc2c1O` (stereo not drawn) [Example 177, N-(4-Chlorobenzyl)-8-fluoro-4-hydroxy-6-[(2-hydroxyethyl)sulfinyl]-3-quinolinecarboxamide] reads 7.2 µM.
On the same count and under the same terms, the result for `O=C(NCc1ccc(Cl)cc1)c1cnc2c(F)cc(S(=O)(=O)NCCO)cc2c1O` [Example 229, N-(4-chlorobenzyl)-8-fluoro-4-hydroxy-6-{[(2-hydroxyethyl)amino]sulfonyl}-3-quinolinecarboxamide] reads 10.7 µM; that for `O=C(NCc1ccc(Cl)cc1)c1cnc2c(F)cc(S(=O)(=O)NCC(F)(F)F)cc2c1O` [Example 243, N-(4-chlorobenzyl)-8-fluoro-4-hydroxy-6-{[(2,2,2-trifluoroethyl)amino]sulfonyl}-3-quinolinecarboxamide], 15.5 µM; that for `O=C(NCc1ccc(Cl)cc1)c1cnc2c(F)cc(S(=O)(=O)NCCc3c[nH]c4ccccc34)cc2c1O` [Example 210, N-(4-chlorobenzyl)-8-fluoro-4-hydroxy-6-({[2-(1H-indol-3-yl)ethyl]amino}sulfonyl)-3-quinolinecarboxamide], 4.8 µM.
